“And” between values parts separate entries of the source, which are not always exact repeats. Identical values can stand only once. Like-named read-outs stand apart in the source and are kept apart here.
Columns and labels:
AR(h) = assay: Off-target radioligand binding screen; settings: Nec-1f 10 µM
[1] = both, microsomes, 2 µM, pH 7.4
B6 LysM-GFP mice = assay: Intravital two-photon imaging of neutrophils in transplanted hearts; type: in vivo, mouse; settings: heart transplantation, recipient mice 2.0 mg/kg body weight
Description: Hearts harvested from wild-type C57BL/6 mice were transplanted into the right neck of syngeneic LysM-GFP hosts, as previously described. […] Intravital two-photon imaging was performed using a custom-built microscope running ImageWarp version 2.1 acquisition software (A&B Software). For time-lapse imaging of cell trafficking, we averaged 15 video-rate frames (0.5 s per slice) during the acquisition. Each plane represents an image of 220 × 240 μm in the x and y dimensions and twenty-one sequential planes were acquired in the z dimension (2.5-μm each). Each individual neutrophil was tracked from its first appearance in the imaging window and followed up to the time point at which it dislocated more than 20 μm from its starting position. Fifty microlitres PBS containing 15 μl 655-nm nontargeted Q-dots (Thermo Fisher Scientific) were injected prior to imaging to visualize coronary vessels and assess whether neutrophils were intravascular or extravascular. The number of extravascular neutrophils was divided by the sum of intravascular and extravascular neutrophils to calculate extravasation. Imaris (Bitplane) was used for multidimensional rendering and manual cell tracking.

C57BL/6N mice = assay: Acute oxalate nephropathy (CaOx-induced AKI); type: in vivo, mouse; settings: sodium oxalate, 1.65 mg/kg Nec-1f, individual animals
A2A(h) = A2A(h) (Homo sapiens, UniProt P29274); assay: Off-target radioligand binding screen; settings: read-out: A2A(h) (#): inhibition of radioligand binding
β1(h) = β1(h) (Homo sapiens, UniProt P08588); assay: Off-target radioligand binding screen; settings: read-out: β1(h) (#): inhibition of radioligand binding
α2A(h) = α2A(h) (Homo sapiens, UniProt P08913); assay: Off-target radioligand binding screen; settings: read-out: α2A(h) ($): inhibition of radioligand binding
CCK1 (CCKA) (h) = CCK1 (CCKA) (h) (Homo sapiens, UniProt P32238); assay: Off-target radioligand binding screen; settings: read-out: CCK1 (CCKA) (h) (#): inhibition of radioligand binding
D2S(h) = D2S(h) (Homo sapiens, UniProt P14416); assay: Off-target radioligand binding screen; settings: read-out: D2S(h) (#): inhibition of radioligand binding
kappa (h) (KOP) = kappa (h) (KOP) (Homo sapiens, UniProt P41145); assay: Off-target radioligand binding screen; settings: read-out: kappa (h) (KOP) (#): inhibition of radioligand binding
ETA(h) = ETA(h) (Homo sapiens, UniProt P25101); assay: Off-target radioligand binding screen; settings: read-out: ETA(h) (#): inhibition of radioligand binding
BZD (central) = assay: Off-target radioligand binding screen; settings: Nec-1f 10 µM
[2] = Inhibited co-autoxidation of cumene and STY-BODIPY (radical-trapping antioxidant activity); settings: AIBN-initiated; even at 5-fold higher concentration than PMC
5-HT transporter (h) = 5-HT transporter (h) (Homo sapiens, UniProt P31645); assay: Off-target radioligand binding screen; settings: read-out: 5-HT transporter (h) ($): inhibition of radioligand binding
V1a(h) = V1a(h) (Homo sapiens, UniProt P37288); assay: Off-target radioligand binding screen; settings: read-out: V1a(h) (#): inhibition of radioligand binding
GR (h) = GR (h) (Homo sapiens, UniProt P04150); assay: Off-target radioligand binding screen; settings: read-out: GR (h) (#): inhibition of radioligand binding, Nec-1f 10 µM
[3] = Stability in human plasma; type: in vitro ADME; settings: 1 µM, 37 °C
Description: Plasma stability is defined as the percentage of parent compound remaining in plasma over the time. Here, incubations were carried out in 5 aliquots of 70 µl each (one for each time point), in duplicates. […] The percentage of the test compounds remaining after incubation in plasma and their half-lives (T1/2) was calculated.

[4] = molecular target: norepinephrine transporter(h) (Homo sapiens, UniProt P23975); assay: Off-target radioligand binding screen; settings: read-out: norepinephrine transporter(h) ($): inhibition of radioligand binding
β2(h) = β2(h) (Homo sapiens, UniProt P07550); assay: Off-target radioligand binding screen; settings: read-out: β2(h) ($): inhibition of radioligand binding
Chain of β2(h) (P07550 whole entry): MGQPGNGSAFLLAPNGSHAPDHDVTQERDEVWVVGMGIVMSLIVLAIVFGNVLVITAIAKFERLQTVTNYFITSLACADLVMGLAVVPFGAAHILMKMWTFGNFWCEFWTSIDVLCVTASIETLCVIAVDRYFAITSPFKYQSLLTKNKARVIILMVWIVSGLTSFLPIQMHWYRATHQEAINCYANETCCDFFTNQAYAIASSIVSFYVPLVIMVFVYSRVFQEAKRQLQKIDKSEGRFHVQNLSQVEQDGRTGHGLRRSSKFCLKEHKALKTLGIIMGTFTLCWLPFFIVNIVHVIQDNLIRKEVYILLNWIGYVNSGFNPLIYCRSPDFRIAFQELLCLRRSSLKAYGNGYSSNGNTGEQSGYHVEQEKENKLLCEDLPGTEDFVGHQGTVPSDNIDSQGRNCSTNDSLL

Chain of norepinephrine transporter(h) (P23975 whole entry): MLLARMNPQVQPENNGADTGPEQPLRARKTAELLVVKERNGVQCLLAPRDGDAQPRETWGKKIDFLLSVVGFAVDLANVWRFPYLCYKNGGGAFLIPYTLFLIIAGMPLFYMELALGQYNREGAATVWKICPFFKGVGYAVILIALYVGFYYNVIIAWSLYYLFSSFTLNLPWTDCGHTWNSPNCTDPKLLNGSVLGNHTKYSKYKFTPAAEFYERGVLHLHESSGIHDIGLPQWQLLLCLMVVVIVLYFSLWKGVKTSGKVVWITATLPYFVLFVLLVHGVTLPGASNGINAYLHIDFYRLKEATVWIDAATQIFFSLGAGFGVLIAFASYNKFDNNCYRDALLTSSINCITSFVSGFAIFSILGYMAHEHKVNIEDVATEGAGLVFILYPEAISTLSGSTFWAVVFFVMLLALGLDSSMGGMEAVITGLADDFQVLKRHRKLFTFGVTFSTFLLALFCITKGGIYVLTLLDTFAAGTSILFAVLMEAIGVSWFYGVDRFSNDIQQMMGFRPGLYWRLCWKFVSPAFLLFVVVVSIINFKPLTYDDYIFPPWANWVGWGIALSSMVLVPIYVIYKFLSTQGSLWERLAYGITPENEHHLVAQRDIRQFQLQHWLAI
Chain of CCK1 (CCKA) (h) (P32238 whole entry): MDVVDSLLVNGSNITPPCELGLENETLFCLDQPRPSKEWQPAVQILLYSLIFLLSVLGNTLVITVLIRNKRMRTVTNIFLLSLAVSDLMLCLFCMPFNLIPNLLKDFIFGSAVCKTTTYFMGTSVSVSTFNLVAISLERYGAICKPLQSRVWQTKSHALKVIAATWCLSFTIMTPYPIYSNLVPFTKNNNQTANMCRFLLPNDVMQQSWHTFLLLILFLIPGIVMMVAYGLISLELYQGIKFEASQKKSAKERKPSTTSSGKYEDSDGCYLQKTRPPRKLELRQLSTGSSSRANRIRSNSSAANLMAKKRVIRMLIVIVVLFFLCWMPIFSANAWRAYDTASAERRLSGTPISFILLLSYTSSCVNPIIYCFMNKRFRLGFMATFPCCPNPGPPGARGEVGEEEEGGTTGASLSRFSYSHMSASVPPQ
Chain of GR (h) (P04150 whole entry): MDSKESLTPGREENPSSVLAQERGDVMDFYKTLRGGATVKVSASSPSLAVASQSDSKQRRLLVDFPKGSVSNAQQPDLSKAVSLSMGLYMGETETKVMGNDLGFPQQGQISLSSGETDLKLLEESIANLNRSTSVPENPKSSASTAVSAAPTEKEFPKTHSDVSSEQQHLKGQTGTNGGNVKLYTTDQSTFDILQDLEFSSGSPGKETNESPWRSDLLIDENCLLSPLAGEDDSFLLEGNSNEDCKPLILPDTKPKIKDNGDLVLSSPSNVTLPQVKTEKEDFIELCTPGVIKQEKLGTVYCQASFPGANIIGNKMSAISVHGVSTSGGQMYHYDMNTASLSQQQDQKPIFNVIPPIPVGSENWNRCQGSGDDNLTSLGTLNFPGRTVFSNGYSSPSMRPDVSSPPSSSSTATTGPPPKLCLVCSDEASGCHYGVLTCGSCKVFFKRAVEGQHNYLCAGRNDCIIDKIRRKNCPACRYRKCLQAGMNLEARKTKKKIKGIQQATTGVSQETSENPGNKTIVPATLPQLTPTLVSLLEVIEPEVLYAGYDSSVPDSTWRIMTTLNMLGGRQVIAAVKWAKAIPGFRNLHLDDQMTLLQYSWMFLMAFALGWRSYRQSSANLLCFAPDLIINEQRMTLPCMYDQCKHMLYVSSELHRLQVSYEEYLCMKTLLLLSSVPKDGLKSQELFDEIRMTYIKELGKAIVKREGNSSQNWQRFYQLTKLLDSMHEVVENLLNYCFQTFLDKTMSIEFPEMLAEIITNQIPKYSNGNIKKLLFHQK
Chain of D2S(h) (P14416 1-414 isoform P14416-2): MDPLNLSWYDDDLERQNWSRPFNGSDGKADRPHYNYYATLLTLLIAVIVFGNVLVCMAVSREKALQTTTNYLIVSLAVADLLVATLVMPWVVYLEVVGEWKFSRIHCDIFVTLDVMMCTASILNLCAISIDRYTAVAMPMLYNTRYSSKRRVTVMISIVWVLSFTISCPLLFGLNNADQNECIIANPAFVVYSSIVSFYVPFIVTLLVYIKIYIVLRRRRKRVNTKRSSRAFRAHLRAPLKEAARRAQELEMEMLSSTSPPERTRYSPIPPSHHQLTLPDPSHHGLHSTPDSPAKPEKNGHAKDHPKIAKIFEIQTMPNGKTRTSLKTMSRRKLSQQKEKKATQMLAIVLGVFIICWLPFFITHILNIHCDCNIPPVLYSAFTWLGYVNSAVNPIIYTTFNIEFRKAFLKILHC
Chain of ETA(h) (P25101 21-427): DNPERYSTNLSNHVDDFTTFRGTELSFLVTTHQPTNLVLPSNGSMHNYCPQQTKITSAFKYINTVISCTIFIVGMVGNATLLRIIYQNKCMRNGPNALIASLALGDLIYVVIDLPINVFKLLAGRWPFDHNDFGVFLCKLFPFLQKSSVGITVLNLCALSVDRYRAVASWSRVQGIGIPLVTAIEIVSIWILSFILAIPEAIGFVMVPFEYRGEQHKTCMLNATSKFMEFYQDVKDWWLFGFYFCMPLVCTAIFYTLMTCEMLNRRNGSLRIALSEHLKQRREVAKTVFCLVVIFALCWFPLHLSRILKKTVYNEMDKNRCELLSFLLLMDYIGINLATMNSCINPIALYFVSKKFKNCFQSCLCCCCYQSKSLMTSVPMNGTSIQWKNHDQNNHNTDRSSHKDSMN
Chain of V1a(h) (P37288 whole entry): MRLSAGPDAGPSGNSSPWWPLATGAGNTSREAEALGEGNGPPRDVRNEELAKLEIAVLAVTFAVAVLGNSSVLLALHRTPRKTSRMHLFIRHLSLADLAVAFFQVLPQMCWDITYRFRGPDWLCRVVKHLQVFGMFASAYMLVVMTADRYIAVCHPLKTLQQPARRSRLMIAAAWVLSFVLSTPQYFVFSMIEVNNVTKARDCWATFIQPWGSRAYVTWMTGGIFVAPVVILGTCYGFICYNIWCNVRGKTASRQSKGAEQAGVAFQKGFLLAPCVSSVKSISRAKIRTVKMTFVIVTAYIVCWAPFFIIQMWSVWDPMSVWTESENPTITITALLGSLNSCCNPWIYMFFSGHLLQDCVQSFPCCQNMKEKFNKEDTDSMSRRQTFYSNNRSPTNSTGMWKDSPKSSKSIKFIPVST
Chain of 5-HT transporter (h) (P31645 whole entry): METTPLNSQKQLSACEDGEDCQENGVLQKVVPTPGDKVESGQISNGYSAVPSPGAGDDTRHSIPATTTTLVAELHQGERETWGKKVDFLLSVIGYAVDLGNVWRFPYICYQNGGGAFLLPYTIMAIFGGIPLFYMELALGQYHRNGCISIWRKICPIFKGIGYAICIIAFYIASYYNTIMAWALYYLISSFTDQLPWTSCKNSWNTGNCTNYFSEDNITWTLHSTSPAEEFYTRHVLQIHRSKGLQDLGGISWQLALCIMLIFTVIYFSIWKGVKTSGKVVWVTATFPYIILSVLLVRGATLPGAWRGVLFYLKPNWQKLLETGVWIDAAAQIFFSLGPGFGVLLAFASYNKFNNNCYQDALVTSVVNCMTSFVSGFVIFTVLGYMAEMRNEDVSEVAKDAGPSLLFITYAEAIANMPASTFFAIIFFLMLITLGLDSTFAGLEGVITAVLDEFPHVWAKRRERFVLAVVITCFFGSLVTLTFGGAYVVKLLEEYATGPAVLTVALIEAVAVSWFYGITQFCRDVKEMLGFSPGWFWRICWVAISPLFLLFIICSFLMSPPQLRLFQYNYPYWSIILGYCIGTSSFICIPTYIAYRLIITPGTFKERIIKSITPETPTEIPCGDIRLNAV
Chain of α2A(h) (P08913 whole entry): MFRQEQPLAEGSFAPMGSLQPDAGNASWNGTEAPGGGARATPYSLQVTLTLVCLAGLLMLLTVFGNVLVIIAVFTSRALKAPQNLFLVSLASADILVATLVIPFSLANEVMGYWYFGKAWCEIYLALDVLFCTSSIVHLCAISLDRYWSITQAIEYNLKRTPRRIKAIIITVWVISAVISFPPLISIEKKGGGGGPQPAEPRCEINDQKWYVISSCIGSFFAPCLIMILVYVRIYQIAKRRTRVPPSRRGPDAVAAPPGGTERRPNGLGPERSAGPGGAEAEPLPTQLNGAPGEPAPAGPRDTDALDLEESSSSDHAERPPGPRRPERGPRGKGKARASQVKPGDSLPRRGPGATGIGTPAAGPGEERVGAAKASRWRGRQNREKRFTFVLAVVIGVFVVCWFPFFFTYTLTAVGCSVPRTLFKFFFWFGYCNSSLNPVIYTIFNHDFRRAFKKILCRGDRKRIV
Chain of kappa (h) (KOP) (P41145 whole entry): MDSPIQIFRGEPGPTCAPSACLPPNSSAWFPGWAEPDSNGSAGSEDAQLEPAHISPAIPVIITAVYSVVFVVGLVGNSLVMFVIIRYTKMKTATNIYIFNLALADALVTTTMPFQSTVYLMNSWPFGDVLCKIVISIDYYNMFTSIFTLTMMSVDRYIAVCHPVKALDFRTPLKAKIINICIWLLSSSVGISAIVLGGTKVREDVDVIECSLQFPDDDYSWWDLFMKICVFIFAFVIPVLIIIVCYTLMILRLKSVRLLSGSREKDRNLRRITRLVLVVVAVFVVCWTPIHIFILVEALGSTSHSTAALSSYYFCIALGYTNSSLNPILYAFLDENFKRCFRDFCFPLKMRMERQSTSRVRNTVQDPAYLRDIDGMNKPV

CN1C(=O)C(Cc2c[nH]c3c(Cl)cccc23)NC1=S (stereo not drawn) [Nec-1f]
AR(h) (#): inhibition of radioligand binding (AR(h)): 12.2%
Human microsomal stability, parent compound remaining ([1]; 0 h): 100%
Human microsomal stability, parent compound remaining ([1]; 7 min): 80%
Human microsomal stability, parent compound remaining ([1]; 0.25 h): 65%
Human microsomal stability, parent compound remaining ([1]; 25 min): 48%
Human microsomal stability, parent compound remaining ([1]; 40 min): 34%
Density of neutrophils (B6 LysM-GFP mice): highly significant decreases
Extravasation of neutrophils (B6 LysM-GFP mice): highly significant reductions
Neutrophil rolling velocities (B6 LysM-GFP mice): significant increases
Rate of neutrophil recruitment to the graft (B6 LysM-GFP mice): did not alter
CaOx deposition score [1-10] (Pizzolato staining) (C57BL/6N mice): 3 and 6 and 4
inhibition at 10 µM (A2A(h)): -0.3%
inhibition at 10 µM (β1(h)): 3.7%
inhibition at 10 µM (α2A(h)): -2%
inhibition at 10 µM (CCK1 (CCKA) (h)): 28.3%
inhibition at 10 µM (D2S(h)): 4.8%
inhibition at 10 µM (kappa (h) (KOP)): 16%
inhibition at 10 µM (ETA(h)): 0.9%
BZD (central) (#): inhibition of radioligand binding (BZD (central)): -4.6%
Radical-trapping activity in cumene/STY-BODIPY co-autoxidation [2]: no activity
inhibition at 10 µM (5-HT transporter (h)): -5.9%
inhibition at 10 µM (V1a(h)): 29.3%
inhibition at 10 µM (GR (h)): ≥ 50%
Human plasma stability, parent compound remaining ([3]; 0 min): 100%
Human plasma stability, parent compound remaining ([3]; 20 min): 97%
Human plasma stability, parent compound remaining ([3]; 40 min): 93%
Human plasma stability, parent compound remaining ([3]; 60 min): 89%
Human plasma stability, parent compound remaining ([3]; 120 min): 82%
inhibition at 10 µM [4]: 7.3%
inhibition at 10 µM (β2(h)): 1.4%
